Results taken from publication PMC10686834, “Targeting myeloid chemotaxis to reverse prostate cancer therapy resistance” (Nature, 2023).

Test system: patients with ARSI-resistant mCRPC
Test: Phase 1 trial of AZD5069 plus enzalutamide: safety and tolerability (DLTs, treatment-emergent adverse events, NCI-CTCAE v.4.0)
Type: in vivo
Source text: The primary trial objective was to evaluate the safety and tolerability of the combination. Key secondary objectives were to evaluate pharmacokinetic–pharmacodynamic parameters and antitumour activity.
Eligible patients were consenting patients aged ≥18 years, who had mCRPC with histologically confirmed prostate adenocarcinoma histology, documented cancer progression at the time of trial entry by Response Evaluation Criteria in Solid Tumors (v.1.1) and/or Prostate Cancer Working Group 2 criteria, and PSA of ≥10 ng ml^−1 at screening.
The dose-escalation phase used a rule-based 3 + 3 design, with an initial three patients enrolled per dose level. If none of the first three patients experienced a DLT, dose escalation proceeded to the next dose level. […] If fewer than two of six patients at any dose level experienced a DLT, dose escalation continued to the next level. If at least two out of up to six patients experienced a DLT, dose escalation stopped and this dose level was defined as the maximum administered dose. Once this maximum administered dose was defined, the maximum tolerated dose (MTD) was confirmed at the dose level below the maximum administered dose. At least six evaluable patients were required to establish the MTD at a specific dose level. […] Intra-patient dose escalation was not permitted. Start of dosing between the first and second patient enrolled to each dose level was staggered by 1 week. Once the MTD was determined in the phase 1 study, the recommended phase 2 dose was determined on the basis of available data, including but not limited to safety and response.
DLTs were defined as described in the study protocol. […] Prophylaxis with growth factor support or antipyretics were not permitted. Investigators determined whether an adverse event was related to the study drugs. If a patient experienced clinically significant and/or unacceptable toxicity, including a DLT, not attributable to the disease or disease-related processes, dosing was interrupted or the dose was reduced and supportive therapy was administered as required.

## C[C@@H](Oc1cc(NS(=O)(=O)N2CCC2)nc(SCc2cccc(F)c2F)n1)[C@@H](O)CO [AZD5069]
AZD5069 160 mg BD (n=6)
  TEAE Arthralgia, G≥3: 0 (0) n (%)
  TEAE Aspartate aminotransferase increased, All G: 0 (0) n (%)
  TEAE Aspartate aminotransferase increased, G≥3: 0 (0) n (%)
  TEAE Constipation, All G: 0 (0) n (%)
  TEAE Constipation, G≥3: 0 (0) n (%)
  TEAE Death, All G: 0 (0) n (%)
  TEAE Death, G≥3: 0 (0) n (%)
  TEAE Decreased appetite, All G: 0 (0) n (%)
  TEAE Decreased appetite, G≥3: 0 (0) n (%)
  TEAE Diarrhoea, All G: 0 (0) n (%)
  TEAE Diarrhoea, G≥3: 0 (0) n (%)
  TEAE Dry skin, All G: 0 (0) n (%)
  TEAE Dry skin, G≥3: 0 (0) n (%)
  TEAE Fatigue, All G: 2 (33) n (%)
  TEAE Fatigue, G≥3: 0 (0) n (%)
  TEAE Headache, All G: 0 (0) n (%)
  TEAE Headache, G≥3: 0 (0) n (%)
  TEAE Hypophosphataemia, All G: 0 (0) n (%)
  TEAE Hypophosphataemia, G≥3: 0 (0) n (%)
  TEAE Nausea, All G: 2 (33) n (%)
  TEAE Nausea, G≥3: 0 (0) n (%)
  TEAE Neutrophil decreased, All G: 5 (83) n (%)
  TEAE Neutrophil decreased, G≥3: 4 (67) n (%)
  TEAE Oedema genital, All G: 1 (17) n (%)
  TEAE Oedema genital, G≥3: 0 (0) n (%)
  TEAE Platelet decreased, All G: 1 (17) n (%)
  TEAE Platelet decreased, G≥3: 0 (0) n (%)
  TEAE Pruritus, All G: 0 (0) n (%)
  TEAE Pruritus, G≥3: 0 (0) n (%)
  TEAE Skin infection, All G: 0 (0) n (%)
  TEAE Skin infection, G≥3: 0 (0) n (%)
  TEAE Vomiting, All G: 0 (0) n (%)
  TEAE Vomiting, G≥3: 0 (0) n (%)
  TEAE White blood cell decreased, All G: 2 (33) n (%)
  TEAE White blood cell decreased, G≥3: 0 (0) n (%)
AZD5069 320 mg BD (n=7)
  TEAE Anemia, All G: 0 (0) n (%)
  TEAE Anemia, G≥3: 0 (0) n (%)
  TEAE Aphasia, All G: 1 (14) n (%)
  TEAE Aphasia, G≥3: 0 (0) n (%)
  TEAE Arthralgia, All G: 1 (14) n (%)
  TEAE Arthralgia, G≥3: 0 (0) n (%)
  TEAE Aspartate aminotransferase increased, All G: 1 (14) n (%)
  TEAE Aspartate aminotransferase increased, G≥3: 0 (0) n (%)
  TEAE Constipation, All G: 1 (14) n (%)
  TEAE Constipation, G≥3: 0 (0) n (%)
  TEAE Death, All G: 1 (14) n (%)
  TEAE Death, G≥3: 1 (14) n (%)
  TEAE Decreased appetite, All G: 1 (14) n (%)
  TEAE Decreased appetite, G≥3: 0 (0) n (%)
  TEAE Diarrhoea, All G: 1 (14) n (%)
  TEAE Diarrhoea, G≥3: 1 (14) n (%)
  TEAE Dry skin, All G: 1 (14) n (%)
  TEAE Dry skin, G≥3: 0 (0) n (%)
  TEAE Fatigue, All G: 3 (43) n (%)
  TEAE Fatigue, G≥3: 0 (0) n (%)
  TEAE Headache, All G: 3 (43) n (%)
  TEAE Headache, G≥3: 0 (0) n (%)
  TEAE Hypophosphataemia, All G: 0 (0) n (%)
  TEAE Hypophosphataemia, G≥3: 0 (0) n (%)
  TEAE Nausea, All G: 1 (14) n (%)
  TEAE Nausea, G≥3: 0 (0) n (%)
  TEAE Neutrophil decreased, All G: 6 (86) n (%)
  TEAE Neutrophil decreased, G≥3: 4 (57) n (%)
